Consider seven compounds from DBAASP.

As a reminder, the MIC is the lowest concentration that inhibits growth of the organism. Lower therefore signals inhibition by little substance.

≈ marks a conversion by molar mass, not a printed value.

Test systems include Escherichia coli; Bacillus subtilis; Pseudomonas sp. ADP; Staphylococcus aureus; Bacillus thuringiensis; Arthrobacter sp.; Bacillus subtilis L170; Escherichia coli LWF+; Escherichia coli JM109; Cupriavidus necator H16.
What all share (assay): ≥ marks a high value that may be exact or a test limit, other limits are often not marked, values filed in µg/mL are converted to µM
Assay [1] concerns Bacillus subtilis DSM 357.
Assay [2] deals with Escherichia coli DH5alpha.
The subject of assay [3] is Burkholderia cepacia J2540.
Assay [4] has as its system Pseudomonas putida GPp104.
The subject of assay [5] is Escherichia coli BL21(DE3).
The test system of assay [6] is Escherichia coli CCARM 1229.
Assay [7] concerns Bacillus subtilis KCTC 3068.
In assay [8] the test system is Salmonella typhimurium CCARM 8009.
Assay [9] concerns Escherichia coli CCARM 1238.
For assay [10], the system named is Pseudomonas aeruginosa KCTC 1637.
Assay [11] has as its system Salmonella typhimurium CCARM 8003.
The subject of assay [12] is Staphylococcus aureus CCARM 3114.
The subject of assay [13] is Staphylococcus aureus CCARM 3089.
Assay [14] concerns Staphylococcus epidermidis KCTC 1917.
Assay [15] concerns Staphylococcus aureus KCTC 1621.
Assay [16] has as its system Escherichia coli KCTC 1682.
Assay [17] relates to Salmonella typhimurium KCTC 1926.
The test system of assay [18] is Listeria monocytogenes ATCC 19114.
Assay [19] deals with Pseudomonas aeruginosa ATCC 47085.
In assay [20] the test system is Listeria monocytogenes ATCC 19112.
Assay [21] relates to Staphylococcus aureus ATCC 25904.
For assay [22], the system named is Staphylococcus aureus DSM 1104.
In assay [23] the test system is Klebsiella pneumoniae ATCC 27736.
Assay [24] concerns Staphylococcus epidermidis DSM 1798.
The test system of assay [25] is Pseudomonas aeruginosa DSM 1117.
Assay [26] has as its system Staphylococcus aureus ATCC BAA-1717.
Assay [27] has as its system Listeria monocytogenes F4244.
For assay [28], the system named is Escherichia coli DSM 1103.
For assay [29], the system named is Listeria monocytogenes ATCC 19111.
In assay [30] the test system is Escherichia coli ATCC BAA-1025.
The test system of assay [31] is Rhizopus stolonifer CECT 2344.
Assay [32] concerns Fusarium oxysporum f. sp. lycopersici ATCC 201829.
Assay [33] deals with Aspergillus niger CECT 2694.
The subject of assay [34] is Penicillium expansum EPS 26.

As for `CC[C@H](C)[C@H](NC(=O)[C@H](CCCN=C(N)N)NC(=O)[C@H](CC(C)C)NC(=O)CN)C(=O)N[C@@H](CC(C)C)C(=O)N[C@@H](CC(C)C)C(=O)N[C@@H](CC(C)C)C(=O)N[C@@H](CCCCN)C(=O)N[C@H](C(N)=O)C(C)C` [GLRILLLKV], the MIC was 77.2 µM (≈ 79 µg/mL) against Escherichia coli; 12.4 µM (≈ 12.7 µg/mL) against Bacillus subtilis; 15.4 µM (≈ 15.8 µg/mL) against Pseudomonas sp. ADP; 3 µM (≈ 3.07 µg/mL) in the assay with Staphylococcus aureus; 30.8 µM (≈ 31.5 µg/mL) against Bacillus thuringiensis; at least 46.3 µM with Arthrobacter sp..

`CC(C)C[C@H](NC(=O)[C@H](C)NC(=O)[C@H](CC(C)C)NC(=O)[C@H](CCCCN)NC(=O)[C@H](Cc1c[nH]c2ccccc12)NC(=O)[C@H](C)NC(=O)[C@H](CCCCN)NC(=O)[C@H](CC(C)C)NC(=O)[C@H](C)NC(=O)[C@H](CC(C)C)NC(=O)[C@H](CCCCN)NC(=O)[C@H](CC(C)C)NC(=O)[C@H](C)NC(=O)[C@H](CC(C)C)NC(=O)[C@@H](N)CCCCN)C(=O)N[C@@H](CCCCN)C(=O)N[C@@H](C)C(=O)N[C@@H](C)C(N)=O` [KLALKLALKAWKLALKAA]: the MIC in the assay on Bacillus subtilis L170 is 1.6 µM (≈ 3.12 µg/mL); against Escherichia coli LWF+, 10 µM (≈ 19.5 µg/mL); in [1], 1.6 µM (≈ 3.12 µg/mL); in assay [2] it was 5.2 µM (≈ 10.1 µg/mL).

Turning to `CC[C@H](C)[C@H](NC(=O)[C@H](CCCCN)NC(=O)[C@H](CCCCN)NC(=O)[C@H](Cc1ccccc1)NC(=O)[C@H](CC(C)C)NC(=O)[C@H](CCCCN)NC(=O)[C@H](Cc1c[nH]c2ccccc12)NC(=O)[C@@H](N)CCCCN)C(=O)N[C@@H](Cc1ccccc1)C(=O)N[C@@H](CCCCN)C(=O)N[C@@H](CCCN=C(N)N)C(=O)N[C@H](C(=O)N[C@H](C(=O)N[C@@H](CCC(N)=O)C(=O)N[C@@H](CCCN=C(N)N)C(=O)N[C@H](C(=O)N[C@@H](CCCCN)C(=O)N[C@@H](CC(=O)O)C(=O)N[C@@H](Cc1ccccc1)C(=O)N[C@@H](CC(C)C)C(=O)N[C@@H](CCCN=C(N)N)C(=O)O)[C@@H](C)CC)C(C)C)[C@@H](C)CC` [KWKLFKKIFKRIVQRIKDFLR], the MIC in assay [3] is 11.2 µM (≈ 31.3 µg/mL).

On to `CC[C@H](C)[C@H](NC(=O)[C@H](Cc1ccc(O)cc1)NC(=O)[C@@H](NC(=O)[C@@H]1CCCN1C(=O)[C@H](CCCN=C(N)N)NC(=O)[C@H](CC(N)=O)NC(=O)[C@H](CC(C)C)NC(=O)[C@@H](N)CCCN=C(N)N)C(C)C)C(=O)N1CCC[C@H]1C(=O)N[C@@H](CCC(N)=O)C(=O)N1CCC[C@H]1C(=O)N[C@@H](CCCN=C(N)N)C(=O)N1CCC[C@H]1C(=O)N1CCC[C@H]1C(=O)N[C@@H](Cc1cnc[nH]1)C(=O)N1CCC[C@H]1C(=O)N[C@@H](CCCN=C(N)N)C(=O)N[C@@H](CC(C)C)C(=O)O` [RLNRPVYIPQPRPPHPRL], for which the MIC is 10 µM (≈ 22.1 µg/mL) in the assay with Escherichia coli JM109, 12.5 µM (≈ 27.6 µg/mL) in assay [4], at least 50 µM against Cupriavidus necator H16 and 1.25 µM (≈ 2.76 µg/mL) in assay [5].

For `CC[C@H](C)[C@H](NC(=O)[C@H](C)NC(=O)[C@H](CC(C)C)NC(=O)[C@H](Cc1c[nH]c2ccccc12)NC(=O)[C@H](CC(C)C)NC(=O)[C@@H](N)CCCN=C(N)N)C(=O)N[C@@H](Cc1c[nH]c2ccccc12)C(=O)N[C@@H](CCCN=C(N)N)C(=O)N[C@@H](CCCN=C(N)N)C(N)=O` [RLWLAIWRR], the MIC in [6] came out at 8 µM (≈ 10.1 µg/mL); in [7] it was 2 µM (≈ 2.54 µg/mL); in [8], 8 µM (≈ 10.1 µg/mL); in assay [9], 4 µM (≈ 5.07 µg/mL); in assay [10] it was 11.3 µM (≈ 14.4 µg/mL); in [11] it was 16 µM (≈ 20.3 µg/mL). Also, the MIC in [12] is 4 µM (≈ 5.07 µg/mL); in assay [13], 2 µM (≈ 2.54 µg/mL); in assay [14], 1 µM (≈ 1.27 µg/mL); in assay [15], 2 µM (≈ 2.54 µg/mL); in [16], 2 µM (≈ 2.54 µg/mL); in assay [17] it was 8 µM (≈ 10.1 µg/mL).

For `CC[C@H](C)[C@H](NC(=O)[C@H](CCCCN)NC(=O)[C@@H](NC(=O)[C@H](CCC(N)=O)NC(=O)[C@@H](N)CCCNC(=N)N)[C@@H](C)CC)C(=O)N[C@@H](Cc1c[nH]c2ccccc12)C(=O)N[C@@H](Cc1ccccc1)C(=O)N[C@@H](CCC(N)=O)C(=O)N[C@@H](CC(N)=O)C(=O)N[C@@H](CCCNC(=N)N)C(=O)N[C@@H](CCCNC(=N)N)C(=O)N[C@@H](CCSC)C(=O)N[C@@H](CCCCN)C(=O)N[C@@H](Cc1c[nH]c2ccccc12)C(=O)N[C@@H](CCCCN)C(=O)N[C@@H](CCCCN)C(=O)O` [RQIKIWFQNRRMKWKK], the MIC is at least 64 µM in assay [18]; at least 55.6 µM in assay [19]; at least 64 µM in assay [20]; at least 111 µM in assay [21]; at least 51 µM in assay [22]; at least 445 µM in assay [23]. The MIC was 13 µM (≈ 29.2 µg/mL) in [24]; at least 51 µM in assay [25]; at least 445 µM in [26]; at least 128 µM in assay [27]; at least 51 µM in assay [28]; at least 32 µM in [29]. The MIC in [30] was found to be 27.8 µM (≈ 62.5 µg/mL).

`CC[C@H](C)[C@H](NC(=O)[C@H](CCCCN)NC(=O)[C@H](CCCCN)NC(=O)[C@H](Cc1ccccc1)NC(=O)[C@H](CC(C)C)NC(=O)[C@H](CCCCN)NC(=O)[C@@H](N)Cc1ccc(O)cc1)C(=O)N[C@@H](CC(C)C)C(=O)N[C@@H](CCCCN)C(=O)N[C@H](C(=O)N[C@@H](CC(C)C)C(N)=O)C(C)C` [YKLFKKILKVL]: the MIC in assay [31] is at least 70.7 µM; in [32], 1.73 µM (≈ 2.41 µg/mL); in assay [33], 17.3 µM (≈ 24.1 µg/mL); in [34] it was at least 35.4 µM.
